Data taken from patent US11242541B2, “Skeletal muscle cells and method for inducing same” (KYOTO PREFECTURAL PUBLIC UNIVERSITY CORPORATION, priority 2016, dated 2022).

What was measured:
human fibroblasts [1] = assay: Multinucleation of ML-infected cells with or without ERK5 pathway inhibitor (Example 13); type: cell-based; conditions: addition of 2-5 μM inhibitor, 14 days after infection
Protocol: (§1) In the same manner as in Example 12, human fibroblasts were infected with both a retrovirus vector incorporating MyoD1 gene and a retrovirus vector incorporating L-myc gene (ML). As a control, cells free of infection with a retrovirus vector were also prepared (−). A ERK5 pathway inhibitor, XMDB-92, was added at the indicated concentration to some groups. These were cultured in a myoblast differentiation medium in the same manner as in Example 12. 14 days after infection, nuclear staining was performed in the same manner as in Example 3. Images taken using a fluorescence microscope (Keyence BZ710) are shown (FIG. 13A, upper panel). In addition, the percentages of cells having 4 or more nuclei, cells having 2-3 nuclei and cells having one nucleus were calculated (FIG. 13A, lower panel).

human fibroblasts [2] = assay: Real-time RT-PCR of Myogenin, CKM, Dystrophin mRNA with ERK5 pathway inhibitor (Example 13); type: cell-based; conditions: ML-infected cells with inhibitor, 14 days after infection
Protocol: as §1
In addition, 14 days after infection, RNA was extracted from the cells. As a control, RNA was also extracted from the primary human skeletal muscle cells (pSKMs). mRNAs of Myogenin, CKM, Dystrophin were quantified by real time RT-PCR.

## CCOc1cc(N2CCC(O)CC2)ccc1Nc1ncc2c(n1)N(C)c1ccccc1C(=O)N2C [XMD8-92]
Human fibroblasts [1]
  percentage of cells having 2-3 nuclei: 21-23%
  percentage of cells having not less than 4 nuclei: 10-12%
Human fibroblasts [2]
  induction of expression of Myogenin, CKM, Dystrophin mRNA by ML gene transfer: not suppressed
